Laboratory results published in US20260365634A1, “HERBICIDAL PYRAZOLE COMPOUNDS” (SYNGENTA CROP PROTECTION AG, priority 2022, published 2026).

Key:
Format in all cases: in vivo
Settings in all cases: 250 g/ha, evaluated after 13 days
[1] = tested on: Amaranthus palmeri (AMAPA); test: Pre-emergence herbicidal glasshouse test
Procedure: (§1) Seeds of a variety of test species are sown in standard soil in pots Amaranthus palmeri (AMAPA), Amaranthus retoflexus (AMARE), Echinochloa crus-galli (ECHCG), Ipomoea hederacea (IPOHE), Setaria faberi (SETFA). After cultivation for one day (pre-emergence) or after 8 days cultivation (post-emergence) under controlled conditions in a glasshouse (at 24/16 °C, day/night; 14 hours light; 65% humidity), the plants are sprayed with an aqueous spray solution derived from the formulation of the technical active ingredient in acetone/water (50:50) solution containing 0.5% Tween 20 (polyoxyethelyene sorbitan monolaurate, CAS RN 9005-64-5). Compounds are applied at 250 g/ha unless otherwise stated. The test plants are then grown in a glasshouse under controlled conditions in a glasshouse (at 24/16 °C, day/night; 14 hours light; 65% humidity) and watered twice daily. After 13 days for pre and post-emergence, the test is evaluated for the percentage damage caused to the plant. The biological activities are shown in the following table on a five-point scale (5=81-100%; 4=61-80%; 3=41-60%; 2=21-40%; 1=0-20%).

[2] = tested on: Ipomoea hederacea (IPOHE); test: Pre-emergence herbicidal glasshouse test
Procedure: as §1

[3] = tested on: Amaranthus retoflexus (AMARE); test: Pre-emergence herbicidal glasshouse test
Procedure: as §1

[4] = tested on: Echinochloa crus-galli (ECHCG); test: Pre-emergence herbicidal glasshouse test
Procedure: as §1

[5] = tested on: Amaranthus palmeri (AMAPA); test: Post-emergence herbicidal glasshouse test
Procedure: as §1

[6] = tested on: Ipomoea hederacea (IPOHE); test: Post-emergence herbicidal glasshouse test
Procedure: as §1

[7] = tested on: Amaranthus retoflexus (AMARE); test: Post-emergence herbicidal glasshouse test
Procedure: as §1

[8] = tested on: Echinochloa crus-galli (ECHCG); test: Post-emergence herbicidal glasshouse test
Procedure: as §1

[9] = tested on: Setaria faberi (SETFA); test: Pre-emergence herbicidal glasshouse test
Procedure: as §1

[10] = tested on: Setaria faberi (SETFA); test: Post-emergence herbicidal glasshouse test
Procedure: as §1

| SMILES | percentage damage caused to the plant (five-point scale), AMAPA [1] | percentage damage caused to the plant (five-point scale), IPOHE [2] | percentage damage caused to the plant (five-point scale), AMARE [3] | percentage damage caused to the plant (five-point scale), ECHCG [4] | percentage damage caused to the plant (five-point scale), AMAPA [5] | percentage damage caused to the plant (five-point scale), IPOHE [6] | percentage damage caused to the plant (five-point scale), AMARE [7] | percentage damage caused to the plant (five-point scale), ECHCG [8] | percentage damage caused to the plant (five-point scale), SETFA [9] | percentage damage caused to the plant (five-point scale), SETFA [10] |
| --- | --- | --- | --- | --- | --- | --- | --- | --- | --- | --- |
| FC(F)c1cc(Cc2ncc(Cl)cn2)n(CCC2CCOC2)n1 (centres unmarked) [Compound 1.001] | 2 (21-40%) | 2 (21-40%) | 1 (0-20%) | 1 (0-20%) | 1 (0-20%) | 2 (21-40%) | 1 (0-20%) | 1 (0-20%) | – | – |
| FC(F)c1cc(Cc2ncc(Cl)cn2)n(CCCC(F)(F)F)n1 [Compound 1.002] | 5 (81-100%) | 3 (41-60%) | 5 (81-100%) | 1 (0-20%) | 1 (0-20%) | 2 (21-40%) | 2 (21-40%) | 1 (0-20%) | – | – |
| FC(F)c1cc(Cc2ncc(Cl)cn2)n(CCC2CC2)n1 [Compound 1.003] | 4 (61-80%) | 1 (0-20%) | 4 (61-80%) | 1 (0-20%) | 1 (0-20%) | 3 (41-60%) | 1 (0-20%) | 1 (0-20%) | – | – |
| FC(F)CCCn1nc(C(F)F)cc1Cc1ncc(Cl)cn1 [Compound 1.004] | 4 (61-80%) | 2 (21-40%) | 4 (61-80%) | 1 (0-20%) | 3 (41-60%) | 2 (21-40%) | 3 (41-60%) | 1 (0-20%) | – | – |
| FC(F)CCCn1nc(C(F)(F)F)cc1Cc1ncc(Cl)cn1 [Compound 1.005, 5-chloro-2-[[2-(4,4-difluorobutyl)-5-(trifluoromethyl)pyrazol-3-yl]methyl]pyrimidine] | 5 (81-100%) | 5 (81-100%) | 5 (81-100%) | 4 (61-80%) | – | 3 (41-60%) | 5 (81-100%) | 4 (61-80%) | 5 (81-100%) | 4 (61-80%) |
| FC(F)(F)CCCn1nc(C(F)(F)F)cc1Cc1ncc(Cl)cn1 [Compound 1.006] | 5 (81-100%) | 3 (41-60%) | 5 (81-100%) | 4 (61-80%) | 5 (81-100%) | 3 (41-60%) | 5 (81-100%) | 3 (41-60%) | 5 (81-100%) | 4 (61-80%) |
| FC(F)c1cc(Cc2ncc(Cl)cn2)n(CCC(F)(F)F)n1 [Compound 1.007] | 5 (81-100%) | 4 (61-80%) | 5 (81-100%) | 2 (21-40%) | 3 (41-60%) | 3 (41-60%) | 4 (61-80%) | 2 (21-40%) | – | – |
